Source: patent US10052320B2, “Substituted quinoxalines as FGFR kinase inhibitors” (ASTEX THERAPEUTICS LIMITED, priority 2011, dated 2018)

What was measured:
FGFR1 (h) = FGFR1 (h) (Homo sapiens, UniProt P11362); assay: FGFR1 (enzymatic assay), TR-FRET; format: biochemical; conditions: read-out: FGFR 1 pIC50 (converted)
Procedure: In a final reaction volume of 30 μL, FGFR1 (h) (25 ng/ml) was incubated with 50 mM HEPES pH 7.5, 6 mM MnCl2, 1 mM DTT, 0.1 mM Na3VO4, 0.01% Triton-X-100, 500 nM Btn-Flt3 and 5 μM ATP in the presence of compound (1% DMSO final). […] Time-Resolved Fluorescence Resonance Energy Transfer (TR-FRET) signal (ex340 nm. Em 620 nm, em 655 nm) was measured afterwards and results are expressed in RFU (Relative Fluorescence Units).

[1] = system: Ba/F3-KDR-transfected cells in the presence of 10 ng/ml murine IL3; assay: Ba/F3-KDR (plus IL3) cellular proliferation counterscreen, Alamar Blue; format: cell-based; conditions: Mus musculus; plus 10 ng/ml murine IL3; read-out: BAF3-KDR (PLUS IL3) 384 well pIC50 (converted)
Procedure: Ba/F3-KDR (Minus IL3 or Plus IL3) (Cellular Proliferation Assay)
[…] Cells were put in an incubator at 37° C. and 5% CO2. After 24 hours, 10 μl of Alamar Blue solution (0.5 mM K3Fe(CN)6, 0.5 mM KaFe(CN)6, 0.15 mM Resazurin and 100 mM Phosphate Buffer) was added to the wells, incubated for 4 hours at 37° C. and 5% CO2 before RFU's (Relative Fluorescence Units) (ex. 540 nm., em. 590 nm.) were measured in a flurorescence plate reader.
As a counterscreen the same experiment was performed in the presence of 10 ng/ml murine IL3.
(§1) In a 96 well plate, 180 μl cell culture medium (phenol red free RPMI-1640, 10% FBS, 2 mM L-Glutamine and 50 μg/ml Gentamycin) containing 10000 cells per well of Ba/F3-KDR-transfected cells were pipette and 20 μl of compound dilution in DMSO was added. Cells were put in an incubator at 37° C. and 5% CO2. After 24 hours, 40 μl of Alamar Blue solution (0.5 mM K3Fe(CN)6, 0.5 mM KaFe(CN)6, 0.15 mM Resazurin and 100 mM Phosphate Buffer) was added to the wells, incubated for 4 hours at 37° C. and 5% CO2 RFU's (Relative Fluorescence Units) (ex. 540 nm., em. 590 nm.) were measured in a flurorescence plate reader.

[2] = biological target: Ba/F3-FGFR3-transfected cells (Homo sapiens, UniProt P22607); assay: Ba/F3-FGFR3 (minus IL3) cellular proliferation assay, Alamar Blue; format: cell-based; conditions: minus IL3, 384 well
Procedure: Ba/F3-FGFR3 (Minus IL3 or Plus IL3) (Cellular Proliferation Assay)
Cells were put in an incubator at 37° C. and 5% CO2. After 24 hours, 10 μl of Alamar Blue solution (0.5 mM K3Fe(CN)6, 0.5 mM KaFe(CN)6, 0.15 mM Resazurin and 100 mM Phosphate Buffer) was added to the wells, incubated for 4 hours at 37° C. and 5% CO2 before RFU's (Relative Fluorescence Units) (ex. 540 nm., em. 590 nm.) were measured in a flurorescence plate reader. […]
as §1, with “well of Ba/F3-FGFR3-transfected cells were” for “well of Ba/F3-KDR-transfected cells were”, “5% CO2 before RFU's (Relative” for “5% CO2 RFU's (Relative”

[3] = biological target: Ba/F3-KDR-transfected cells (Homo sapiens, UniProt P35968); assay: Ba/F3-KDR (minus IL3) cellular proliferation assay, Alamar Blue; format: cell-based; conditions: minus IL3
Summary of the method: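 24 h compound exposure, Ba/F3-KDR cells, 20000/well (384-well) or 10000/well (96-well), 37 °C/5% CO2; resazurin 4 h; RFU ex540/em590. IL3 counterscreen: plus 10 ng/ml murine IL3.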

KDR (h) (VEGFR2) = KDR (h) (VEGFR2) (Homo sapiens, UniProt P35968); assay: KDR (VEGFR2) (enzymatic assay), TR-FRET; format: biochemical
Summary of the method: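 3 μM ATP, 500 nM Btn-Flt3 substrate, 150 ng/ml kinase; HEPES pH 7.5 with MnCl2, DTT, vanadate, Triton; 1% DMSO. 120 min RT. Stop: EDTA + Eu-anti-P-Tyr + SA-XL-665, 60 min RT. Readout TR-FRET ex340/em620, 655 nm, RFU.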

Sequence of KDR (h) (VEGFR2) (P35968 20-1356): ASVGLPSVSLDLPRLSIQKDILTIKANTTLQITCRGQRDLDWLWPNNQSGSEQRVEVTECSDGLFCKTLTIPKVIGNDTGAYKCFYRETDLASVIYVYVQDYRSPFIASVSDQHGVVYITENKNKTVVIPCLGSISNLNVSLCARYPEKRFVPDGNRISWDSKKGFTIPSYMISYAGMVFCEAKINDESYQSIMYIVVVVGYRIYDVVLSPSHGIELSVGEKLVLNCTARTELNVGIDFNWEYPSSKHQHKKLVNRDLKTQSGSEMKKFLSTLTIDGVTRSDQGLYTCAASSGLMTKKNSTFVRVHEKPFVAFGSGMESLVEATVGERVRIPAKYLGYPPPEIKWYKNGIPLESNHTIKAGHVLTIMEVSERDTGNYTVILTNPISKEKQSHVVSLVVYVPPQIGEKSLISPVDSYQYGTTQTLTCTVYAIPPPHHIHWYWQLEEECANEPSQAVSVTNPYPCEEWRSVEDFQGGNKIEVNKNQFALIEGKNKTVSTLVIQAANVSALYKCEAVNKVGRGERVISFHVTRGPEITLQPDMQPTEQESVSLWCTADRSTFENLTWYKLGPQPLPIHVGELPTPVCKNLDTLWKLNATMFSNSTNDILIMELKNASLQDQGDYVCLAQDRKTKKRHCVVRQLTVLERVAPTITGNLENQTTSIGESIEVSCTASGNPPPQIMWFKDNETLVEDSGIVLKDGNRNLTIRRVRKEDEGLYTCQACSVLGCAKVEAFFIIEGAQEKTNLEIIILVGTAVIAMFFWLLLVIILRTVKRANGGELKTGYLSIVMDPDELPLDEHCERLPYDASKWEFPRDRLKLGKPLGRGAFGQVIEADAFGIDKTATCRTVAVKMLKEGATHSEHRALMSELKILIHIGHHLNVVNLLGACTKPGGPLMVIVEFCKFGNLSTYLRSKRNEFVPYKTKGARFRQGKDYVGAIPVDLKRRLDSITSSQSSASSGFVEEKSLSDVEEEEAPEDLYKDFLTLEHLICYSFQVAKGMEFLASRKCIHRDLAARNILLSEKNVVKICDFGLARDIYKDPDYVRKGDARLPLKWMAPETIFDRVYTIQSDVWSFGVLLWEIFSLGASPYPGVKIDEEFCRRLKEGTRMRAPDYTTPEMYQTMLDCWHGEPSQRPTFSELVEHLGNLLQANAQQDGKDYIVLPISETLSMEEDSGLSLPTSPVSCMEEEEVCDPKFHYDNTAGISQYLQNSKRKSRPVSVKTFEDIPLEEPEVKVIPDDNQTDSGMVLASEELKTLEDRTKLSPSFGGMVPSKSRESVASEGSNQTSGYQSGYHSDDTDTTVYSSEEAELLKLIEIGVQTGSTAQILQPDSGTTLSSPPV
Sequence of Ba/F3-KDR-transfected cells (P35968 whole entry, change not shown): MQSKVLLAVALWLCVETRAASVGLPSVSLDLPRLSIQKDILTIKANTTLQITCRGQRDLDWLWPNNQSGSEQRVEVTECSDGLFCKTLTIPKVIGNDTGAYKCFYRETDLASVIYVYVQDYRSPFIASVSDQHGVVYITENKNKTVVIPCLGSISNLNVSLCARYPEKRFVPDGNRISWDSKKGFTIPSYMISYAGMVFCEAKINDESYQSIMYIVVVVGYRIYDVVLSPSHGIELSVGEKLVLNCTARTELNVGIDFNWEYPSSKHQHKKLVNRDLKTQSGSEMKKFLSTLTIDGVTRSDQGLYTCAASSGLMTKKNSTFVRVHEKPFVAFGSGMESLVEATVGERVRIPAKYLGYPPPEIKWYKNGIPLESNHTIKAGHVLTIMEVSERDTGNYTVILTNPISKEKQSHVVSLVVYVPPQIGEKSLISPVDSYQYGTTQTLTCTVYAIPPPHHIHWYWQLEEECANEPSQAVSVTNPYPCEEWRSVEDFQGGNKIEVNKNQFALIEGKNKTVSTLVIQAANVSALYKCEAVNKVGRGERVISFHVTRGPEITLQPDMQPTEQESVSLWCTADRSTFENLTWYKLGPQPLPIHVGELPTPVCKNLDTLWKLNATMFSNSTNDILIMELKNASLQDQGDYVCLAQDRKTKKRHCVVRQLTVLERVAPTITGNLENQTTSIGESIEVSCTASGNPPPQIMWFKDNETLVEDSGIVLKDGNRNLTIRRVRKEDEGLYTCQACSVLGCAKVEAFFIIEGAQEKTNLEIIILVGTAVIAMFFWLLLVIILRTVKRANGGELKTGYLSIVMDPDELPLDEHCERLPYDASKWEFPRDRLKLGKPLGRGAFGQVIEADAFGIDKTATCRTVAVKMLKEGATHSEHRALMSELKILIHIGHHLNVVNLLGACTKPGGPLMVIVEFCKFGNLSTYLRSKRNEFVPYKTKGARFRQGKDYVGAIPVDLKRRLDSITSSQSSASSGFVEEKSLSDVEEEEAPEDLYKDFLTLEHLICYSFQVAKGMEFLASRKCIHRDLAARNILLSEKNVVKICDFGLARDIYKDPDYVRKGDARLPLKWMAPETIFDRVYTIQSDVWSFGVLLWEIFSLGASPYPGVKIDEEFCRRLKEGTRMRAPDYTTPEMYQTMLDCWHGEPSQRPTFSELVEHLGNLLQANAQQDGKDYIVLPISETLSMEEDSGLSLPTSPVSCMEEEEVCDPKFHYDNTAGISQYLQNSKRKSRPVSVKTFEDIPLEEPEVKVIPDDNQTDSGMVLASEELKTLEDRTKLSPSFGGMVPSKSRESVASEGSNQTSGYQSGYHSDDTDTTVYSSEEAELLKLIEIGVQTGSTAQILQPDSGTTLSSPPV
Sequence of FGFR1 (h) (P11362 22-822): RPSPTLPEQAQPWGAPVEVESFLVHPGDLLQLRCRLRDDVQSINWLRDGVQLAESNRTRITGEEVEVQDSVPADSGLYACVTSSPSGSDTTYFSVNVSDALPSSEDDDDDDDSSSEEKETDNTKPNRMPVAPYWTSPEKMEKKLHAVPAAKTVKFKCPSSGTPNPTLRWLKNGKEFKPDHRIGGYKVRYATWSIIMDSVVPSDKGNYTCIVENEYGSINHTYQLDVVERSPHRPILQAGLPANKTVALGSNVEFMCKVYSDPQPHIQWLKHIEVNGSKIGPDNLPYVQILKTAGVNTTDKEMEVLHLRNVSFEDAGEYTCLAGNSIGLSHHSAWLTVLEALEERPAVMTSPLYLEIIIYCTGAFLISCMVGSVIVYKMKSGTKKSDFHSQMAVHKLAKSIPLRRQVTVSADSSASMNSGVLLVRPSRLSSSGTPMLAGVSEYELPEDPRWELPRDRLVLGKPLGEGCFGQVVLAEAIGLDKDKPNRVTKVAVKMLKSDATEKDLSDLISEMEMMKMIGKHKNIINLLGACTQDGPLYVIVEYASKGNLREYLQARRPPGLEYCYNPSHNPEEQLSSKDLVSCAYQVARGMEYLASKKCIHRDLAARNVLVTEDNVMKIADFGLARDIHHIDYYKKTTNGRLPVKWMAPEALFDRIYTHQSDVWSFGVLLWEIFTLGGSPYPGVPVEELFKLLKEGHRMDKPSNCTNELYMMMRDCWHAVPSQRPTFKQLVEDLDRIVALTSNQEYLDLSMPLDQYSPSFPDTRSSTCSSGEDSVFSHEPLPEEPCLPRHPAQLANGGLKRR
Sequence of Ba/F3-FGFR3-transfected cells (P22607 whole entry, change not shown): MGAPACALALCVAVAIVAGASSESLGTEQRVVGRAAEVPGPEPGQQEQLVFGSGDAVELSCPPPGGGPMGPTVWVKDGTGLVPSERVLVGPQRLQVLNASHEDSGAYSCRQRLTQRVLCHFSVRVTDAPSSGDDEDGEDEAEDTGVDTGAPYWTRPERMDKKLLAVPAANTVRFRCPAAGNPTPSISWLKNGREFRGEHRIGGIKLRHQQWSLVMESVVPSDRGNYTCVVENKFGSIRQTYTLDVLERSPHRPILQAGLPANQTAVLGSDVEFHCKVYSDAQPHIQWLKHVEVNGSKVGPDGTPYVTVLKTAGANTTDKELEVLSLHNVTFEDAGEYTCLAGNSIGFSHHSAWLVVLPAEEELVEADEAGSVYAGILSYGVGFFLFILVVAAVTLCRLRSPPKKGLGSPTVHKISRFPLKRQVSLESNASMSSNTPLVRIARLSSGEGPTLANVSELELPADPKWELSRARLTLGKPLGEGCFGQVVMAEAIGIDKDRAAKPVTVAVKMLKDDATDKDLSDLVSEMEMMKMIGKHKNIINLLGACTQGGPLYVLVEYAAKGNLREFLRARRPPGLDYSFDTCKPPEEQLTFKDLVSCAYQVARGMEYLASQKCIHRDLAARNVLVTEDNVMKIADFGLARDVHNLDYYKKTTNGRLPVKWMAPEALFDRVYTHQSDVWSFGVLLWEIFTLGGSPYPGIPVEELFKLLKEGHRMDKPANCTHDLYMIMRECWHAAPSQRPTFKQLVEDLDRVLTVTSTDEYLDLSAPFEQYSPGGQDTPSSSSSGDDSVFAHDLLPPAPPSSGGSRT

Compound | melting point [°C] | IC50 (FGFR1 (h)) [nM] | IC50 [1] [nM] | BAF3-FGFR 3 (MIN IL3) 384 well pIC50 [2] | BAF3-KDR (MIN IL3) 384 well pIC50 [3] | IC50 (KDR (h) (VEGFR2)) [nM]
COc1cc(OC)cc(N(CCO)c2ccc3ncc(-c4ccc(N5CCNCC5)nc4)nc3c2)c1 [Compound 165] | 171 | 3.89 | > 10000 | 6.12 | 5.36 | 129
COc1cc(OC)cc(N(CCN)c2ccc3ncc(-c4ccn(C)c4)nc3c2)c1 [Compound 79] | 106 | 1.2 | > 10000 | ~6.64 | 5.45 | 22.4
COc1cc(OC)cc(N(CCO)c2ccc3ncc(-c4ccc(N5CCN(C(=O)OC(C)(C)C)CC5)cc4)nc3c2)c1 [Compound 156] | 80 | 45.7 | > 10000 | 5.79 | <5 | 407
COc1cc(OC)cc(N(CCNC(C)C)c2ccc3ncc(C(=O)NCCCN4CCCCC4)nc3c2)c1 [Compound 182] | 121 | 19.5 | > 10000 | 5.64 | <5 | 112
COCC(O)CN(c1cc(OC)cc(OC)c1)c1ccc2ncc(-c3cccnc3)nc2c1 (single isomer, unassigned) [Compound 46] | 154 | 12.6 | > 10000 | 6.65 | <5 | 295
COc1cc(OC)cc(N(CC#Cc2ncccc2OC)c2ccc3ncc(-c4cccnc4)nc3c2)c1 [Compound 183] | 141 | 155 | > 10000 | 7.1 | <5 | > 1000
COc1cc(OC)cc(N(CCO)c2ccc3ncc(C(=O)Nc4cnn(C)c4)nc3c2)c1 [Compound 184] | 227 | 141 | > 10000 | 5.27 | <5 | > 1000
COc1cc(OC)cc(N(CCNC(C)C)c2ccc3ncc(-n4cnc(COC(C)=O)c4)nc3c2)c1 [Compound 167] | 56 | 1.66 | > 10000 | 7.09 | <5 | 251
CNc1ccc(-c2cnc3ccc(N(CCCNCC(F)(F)F)c4cc(OC)cc(OC)c4)cc3n2)cn1 [Compound 129] | 165 | 19.5 | > 10000 | 5.89 | <5 | 363
COc1cc(OC)cc(N(CCO)c2ccc3ncc(C4=CCN(C(=O)OC(C)(C)C)CC4)nc3c2)c1 [Compound 178] | 150 | 5.13 | > 10000 | 6.29 | <5 | > 1000
COc1cc(OC)cc(N(CCO)c2ccc3ncc(C4=CCN(C(=O)OC(C)(C)C)C4)nc3c2)c1 [Compound 173] | 142 | 29.5 | > 10000 | 6.08 | <5 | 479
COc1cc(OC)cc(N(CCCO)c2ccc3ncc(-c4ccnc(F)c4)nc3c2)c1 [Compound 142] | 155 | 12.6 | > 10000 | 5.85 | <5 | 347
COc1cc(OC)cc(N(CCNC(C)C)c2ccc3ncc(-c4ccnn4C4CCCCO4)nc3c2)c1 (stereo not shown) [Compound 188] | 122 | 10 | > 10000 | 6.17 | 5.14 | –
COc1cc(OC)cc(N(CCNC(C)C)c2ccc3ncc(-c4ccc(N5CCOCC5)nc4)nc3c2)c1 [Compound 168] | 135 | 0.955 | 7080 | ~7.15 | 5.75 | 63.1
COc1cc(OC)cc(N(CCCNCC(F)(F)F)c2ccc3ncc(-c4ccnc(C(=O)NCCCCCO)c4)nc3c2)c1 [Compound 150] | 95 | 91.2 | > 10000 | 5.11 | <5 | 708
COc1cc(OC)cc(N(CCN2CCN(C(C)=O)CC2)c2ccc3ncc(-c4ccc(N)nc4)nc3c2)c1 [Compound 68] | 167 | 25.7 | > 10000 | ~6.15 | <5 | 229
CO/N=C(\C)c1cnc2ccc(N(CCO)c3cc(OC)cc(OC)c3)cc2n1 [Compound 29] | 149 | 55 | > 10000 | 5.5 | <5 | > 1000
COc1cc(OC)cc(N(CCO)c2ccc3ncc(-c4ccccc4CCO)nc3c2)c1 [Compound 151] | 133 | 282 | > 10000 | 5.11 | <5 | > 1000
COc1cc(OC)cc(N(CCO)c2ccc3ncc(/C(C)=N/OC(C)(C)C)nc3c2)c1 [Compound 171] | 147 | 603 | > 10000 | <5 | <5 | > 1000
COc1cc(OC)cc(N(CCCNCC(F)(F)F)c2ccc3ncc(-c4ccnc(Cl)c4)nc3c2)c1 [Compound 145] | 130 | 115 | > 10000 | <5 | <5 | > 1000
COc1cc(OC)cc(N(CCCNCC(F)(F)F)c2ccc3ncc(-c4cnc(OC)nc4)nc3c2)c1 [Compound 26] | 96 | 112 | > 10000 | <5 | <5 | > 1000
COc1cc(OC)cc(N(CCN2CCOCC2)c2ccc3ncc(-c4ccc(N)nc4)nc3c2)c1 [Compound 169] | 164 | 8.71 | > 10000 | 6.19 | 5.1 | 126
COc1cc(OC)cc(N(CCCO)c2ccc3ncc(-c4ccnc(C(=O)NCCOCCO)c4)nc3c2)c1 [Compound 186] | – | 44.7 | > 10000 | 5.8 | <5 | 871
